Values after ≈ are worked out from the molar mass of the structure shown.
Key:
[1] = target: T1, Serine/threonine-protein kinase B-raf (Homo sapiens, UniProt P15056, V600E); experiment: Inhibition of BRAF V600E mutant (unknown origin) in presence of 1000 uM ATP by ELISA
[2] = Volume of distribution at steady state in rat at 1 mg/kg, iv; type: ADME, organism-based; parameters: dose 1 mg/kg, route intravenous; details: in vivo, read-out: Vdss
[3] = Antitumor activity against human HMVII cells expressing NRAS Q61K/BRAF G469V mutant xenografted in F344 nude rat assessed as reduction in tumor size at 9.7 mg/kg, po bid for 14 days relative to control; type: functional, HMV-2
[4] = target: T2, RAF proto-oncogene serine/threonine-protein kinase (Homo sapiens, UniProt P04049); experiment: Inhibition of CRAF (unknown origin) in presence of 1000 uM ATP by ELISA
[5] = target: Glycogen synthase kinase-3 beta (Homo sapiens, UniProt P49841); experiment: Inhibition of C-terminal FLAG-tagged GSK3beta (unknown origin) expressed in baculovirus system after 30 mins
[6] = target: T1, Serine/threonine-protein kinase B-raf; experiment: Inhibition of BRAF V600E mutant (unknown origin) compound preincubated for 1 hr in presence of 1000 uM ATP
[7] = target: CDK2/Cyclin A2 (Homo sapiens, UniProt P24941); experiment: Inhibition of CDK2/CycA (unknown origin) using histone H1 as substrate after 20 mins; type: protein-complex assay
[8] = target: T2, RAF proto-oncogene serine/threonine-protein kinase; experiment: Inhibition of N-terminal FLAG-tagged wild type C-RAF (unknown origin) expressed in baculovirus system using GST-MEK1(K96R) as substrate after 20 mins
[9] = Inhibition of NRASQ61k/BRAFG469V-mutant in human HMVII cells assessed as phosphorylation of ERK after 2 hrs by Western blotting analysis; type: cell-based
[10] = test system: A-375; experiment: Antitumor activity against human A375 cells expressing BRAF V600E mutant xenografted in F344 nude rat assessed as reduction in tumor size at 3.9 mg/kg, po bid for 14 days relative to control; type: functional
[11] = target: T1, Serine/threonine-protein kinase B-raf; experiment: Inhibition of BRAF V600E mutant in human HT-29 cells assessed as phosphorylation of MEK; type: cell-based
[12] = target: Proto-oncogene tyrosine-protein kinase Src (Homo sapiens, UniProt P12931); experiment: Inhibition of Src receptor (unknown origin) using biotinylated poly-Glu-Tyr (4:1) as substrate preincubated for 5 mins measured after 12 hrs
[13] = Mean residence time in rat at 1 mg/kg, iv; type: ADME, organism-based; parameters: dose 1 mg/kg, route intravenous; details: in vivo
[14] = Solubility of the compound in form of solid dispersion in phosphate buffer at pH 6.8; type: physicochemical
[15] = Antitumor activity against human HMVII cells expressing NRAS Q61K/BRAF G469V mutant xenografted in F344 nude rat assessed as reduction in tumor size at 3.9 mg/kg, po bid for 14 days relative to control; type: functional, HMV-2
[16] = target: Mitogen-activated protein kinase 3 (Homo sapiens, UniProt P27361); experiment: Inhibition of C-terminal FLAG-tagged ERK1 expressed in baculovirus system (unknown origin) using MBP as substrate after 60 mins
[17] = target: Insulin receptor (Homo sapiens, UniProt P06213); experiment: Inhibition of Insulin receptor (unknown origin) using biotinylated poly-Glu-Tyr (4:1) as substrate preincubated for 5 mins measured after 12 hrs
[18] = target: Hepatocyte growth factor receptor (Homo sapiens, UniProt P08581); experiment: Inhibition of c-Met receptor (unknown origin) using biotinylated poly-Glu-Tyr (4:1) as substrate preincubated for 5 mins measured after 12 hrs
[19] = AUC (0 to 24 hrs) in rat at 25 mg/kg, po; type: ADME, organism-based; parameters: time < 24 hr, dose 25 mg/kg, route oral; details: plasma
[20] = target: Angiopoietin-1 receptor (Homo sapiens, UniProt Q02763); experiment: Inhibition of TIE2 receptor (unknown origin) using biotinylated poly-Glu-Tyr (4:1) as substrate preincubated for 5 mins measured after 12 hrs
[21] = target: Casein kinase I isoform delta (Homo sapiens, UniProt P48730); experiment: Inhibition of CK1delta (unknown origin) using CK1tide as substrate after 20 mins
[22] = Volume of distribution at steady state in dog at 1 mg/kg, iv; type: ADME, organism-based, Canis lupus familiaris; parameters: dose 1 mg/kg, route intravenous; details: in vivo, read-out: Vdss
[23] = test system: A-375; experiment: Antitumor activity against human A375 cells expressing BRAF V600E mutant xenografted in F344 nude rat assessed as reduction in tumor size at 1.9 mg/kg, po bid for 14 days relative to control; type: functional
[24] = organism: Homo sapiens; experiment: Selectivity factor, ratio of IC50 for VEGFR2 (unknown origin) to IC50 for N-terminal FLAG-tagged recombinant BRAF-V600E (unknown origin) expressed in baculovirus system
[25] = target: T3, Serine/threonine-protein kinase B-raf (Homo sapiens, UniProt P15056)
Description: Binding affinity to BRAF (unknown origin) assessed as dissociation half life by surface plasmon resonance analysis

[26] = target: Inhibitor of nuclear factor kappa-B kinase subunit beta (Homo sapiens, UniProt O14920); experiment: Inhibition of C-terminal FLAG-tagged IKK beta (unknown origin) expressed in baculovirus system using IkappaBalpha as substrate after 40 mins
[27] = target: Mitogen-activated protein kinase kinase kinase 1 (Homo sapiens, UniProt Q13233); experiment: Inhibition of C-terminal FLAG-tagged MEKK1 (unknown origin) expressed in baculovirus system using MBP as substrate after 60 mins
[28] = target: Mast/stem cell growth factor receptor Kit (Homo sapiens, UniProt P10721); experiment: Inhibition of c-Kit receptor (unknown origin) using biotinylated poly-Glu-Tyr (4:1) as substrate preincubated for 5 mins measured after 12 hrs
[29] = test system: Rattus norvegicus; experiment: Toxicity in F344 nude rat xenografted with human A375 cells expressing BRAF V600E mutant assessed as body weight change at 9.7 mg/kg, po bid for 14 days relative to control; type: organism-based, A-375; parameters: dose 9.7 mg/kg, route oral; details: in vivo, 336 h
[30] = target: T1, Serine/threonine-protein kinase B-raf; experiment: Inhibition of BRAF V600E mutant in human A375 cells assessed as phosphorylation of MEK after 2 hrs by Western blotting analysis; type: cell-based, A-375
[31] = target: T3, Serine/threonine-protein kinase B-raf; experiment: Inhibition of N-terminal FLAG-tagged wild type BRAF (unknown origin) expressed in baculovirus system using GST-MEK1(K96R) as substrate after 20 mins
[32] = target: T1, Serine/threonine-protein kinase B-raf; experiment: Inhibition of BRAF V600E mutant in human A375 cells assessed as phosphorylation of ERK after 2 hrs by Western blotting analysis; type: cell-based, A-375
[33] = test system: Rattus norvegicus; experiment: Toxicity in F344 nude rat xenografted with human A375 cells expressing BRAF V600E mutant assessed as body weight change at 1.9 mg/kg, po bid for 14 days relative to control; type: organism-based, A-375; parameters: dose 1.9 mg/kg, route oral; details: in vivo, 336 h
[34] = target: Fibroblast growth factor receptor 3 (Homo sapiens, UniProt P22607); experiment: Inhibition of FGFR3 (unknown origin) using biotinylated poly-Glu-Tyr (4:1) as substrate preincubated for 5 mins measured after 12 hrs
[35] = Mean residence time in dog at 1 mg/kg, iv; type: ADME, organism-based, Canis lupus familiaris; parameters: dose 1 mg/kg, route intravenous; details: in vivo
[36] = Antitumor activity against human HMVII cells expressing NRAS Q61K/BRAF G469V mutant xenografted in F344 nude rat assessed as reduction in tumor size at 24.1 mg/kg, po bid for 14 days relative to control; type: functional, HMV-2
[37] = AUC (0 to 24 hrs) in dog at 10 mg/kg, po; type: ADME, organism-based, Canis lupus familiaris; parameters: time < 24 hr, dose 10 mg/kg, route oral; details: plasma
[38] = target: T1, Serine/threonine-protein kinase B-raf; experiment: Inhibition of BRAF V600E mutant (unknown origin) compound preincubated for 1 hr in presence of 5 uM ATP

T1 sequence (P15056 2-766 V600E limits assumed): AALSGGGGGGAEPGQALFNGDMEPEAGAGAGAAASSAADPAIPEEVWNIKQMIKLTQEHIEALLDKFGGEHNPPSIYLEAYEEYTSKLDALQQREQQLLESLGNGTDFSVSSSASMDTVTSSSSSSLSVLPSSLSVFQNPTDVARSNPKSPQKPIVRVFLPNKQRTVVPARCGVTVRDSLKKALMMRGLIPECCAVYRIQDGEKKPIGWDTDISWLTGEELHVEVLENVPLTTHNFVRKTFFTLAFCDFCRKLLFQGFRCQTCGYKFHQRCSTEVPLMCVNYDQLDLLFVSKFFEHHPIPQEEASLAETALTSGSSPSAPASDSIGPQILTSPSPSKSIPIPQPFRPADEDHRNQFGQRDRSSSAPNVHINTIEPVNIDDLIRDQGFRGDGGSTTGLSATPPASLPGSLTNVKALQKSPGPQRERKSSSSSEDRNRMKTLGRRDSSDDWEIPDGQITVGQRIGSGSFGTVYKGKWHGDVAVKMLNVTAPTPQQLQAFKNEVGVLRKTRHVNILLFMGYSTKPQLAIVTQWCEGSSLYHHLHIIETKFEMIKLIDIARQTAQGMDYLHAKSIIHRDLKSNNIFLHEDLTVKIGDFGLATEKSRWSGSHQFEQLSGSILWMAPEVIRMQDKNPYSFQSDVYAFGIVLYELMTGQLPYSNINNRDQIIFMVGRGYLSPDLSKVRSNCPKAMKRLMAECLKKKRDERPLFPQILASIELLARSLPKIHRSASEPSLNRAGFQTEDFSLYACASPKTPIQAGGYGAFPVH
T3 sequence (P15056 whole entry): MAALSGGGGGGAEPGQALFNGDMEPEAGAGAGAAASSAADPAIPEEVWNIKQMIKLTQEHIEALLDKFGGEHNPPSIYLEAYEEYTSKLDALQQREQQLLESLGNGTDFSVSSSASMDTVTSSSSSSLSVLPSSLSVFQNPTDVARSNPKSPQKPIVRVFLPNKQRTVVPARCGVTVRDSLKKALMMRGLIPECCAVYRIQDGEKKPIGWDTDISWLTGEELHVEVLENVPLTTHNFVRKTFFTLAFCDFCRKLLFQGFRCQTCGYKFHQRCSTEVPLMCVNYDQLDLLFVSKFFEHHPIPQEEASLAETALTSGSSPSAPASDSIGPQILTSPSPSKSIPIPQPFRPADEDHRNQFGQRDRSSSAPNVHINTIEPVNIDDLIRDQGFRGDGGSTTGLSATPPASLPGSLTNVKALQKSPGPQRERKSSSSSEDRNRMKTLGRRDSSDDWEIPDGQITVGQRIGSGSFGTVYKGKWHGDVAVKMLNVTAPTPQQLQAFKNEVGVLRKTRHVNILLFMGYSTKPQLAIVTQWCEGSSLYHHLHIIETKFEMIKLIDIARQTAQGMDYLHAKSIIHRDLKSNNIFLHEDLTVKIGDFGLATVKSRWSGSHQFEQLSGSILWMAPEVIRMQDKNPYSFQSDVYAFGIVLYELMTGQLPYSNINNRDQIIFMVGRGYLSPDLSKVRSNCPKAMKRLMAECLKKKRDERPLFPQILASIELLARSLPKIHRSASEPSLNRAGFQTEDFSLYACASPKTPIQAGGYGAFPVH
T2 sequence (P04049 whole entry): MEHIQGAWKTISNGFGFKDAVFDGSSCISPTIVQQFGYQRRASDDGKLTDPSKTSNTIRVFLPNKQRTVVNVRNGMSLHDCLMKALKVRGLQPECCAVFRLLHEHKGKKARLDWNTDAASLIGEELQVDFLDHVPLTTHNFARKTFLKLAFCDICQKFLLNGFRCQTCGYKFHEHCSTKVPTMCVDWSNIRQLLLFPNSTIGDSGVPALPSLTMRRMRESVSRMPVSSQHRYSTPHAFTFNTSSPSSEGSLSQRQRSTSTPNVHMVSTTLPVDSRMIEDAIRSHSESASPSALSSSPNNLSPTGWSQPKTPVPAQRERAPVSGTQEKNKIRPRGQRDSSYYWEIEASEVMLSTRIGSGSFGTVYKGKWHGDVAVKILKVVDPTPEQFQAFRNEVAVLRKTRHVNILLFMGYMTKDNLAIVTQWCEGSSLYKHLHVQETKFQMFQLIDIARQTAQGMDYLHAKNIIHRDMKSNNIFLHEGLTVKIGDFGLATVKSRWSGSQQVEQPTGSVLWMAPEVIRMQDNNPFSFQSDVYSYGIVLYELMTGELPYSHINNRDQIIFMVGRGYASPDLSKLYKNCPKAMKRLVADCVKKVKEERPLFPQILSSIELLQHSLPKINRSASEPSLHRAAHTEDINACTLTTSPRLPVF
Chain of Casein kinase I isoform delta (P48730 whole entry, canonical isoform): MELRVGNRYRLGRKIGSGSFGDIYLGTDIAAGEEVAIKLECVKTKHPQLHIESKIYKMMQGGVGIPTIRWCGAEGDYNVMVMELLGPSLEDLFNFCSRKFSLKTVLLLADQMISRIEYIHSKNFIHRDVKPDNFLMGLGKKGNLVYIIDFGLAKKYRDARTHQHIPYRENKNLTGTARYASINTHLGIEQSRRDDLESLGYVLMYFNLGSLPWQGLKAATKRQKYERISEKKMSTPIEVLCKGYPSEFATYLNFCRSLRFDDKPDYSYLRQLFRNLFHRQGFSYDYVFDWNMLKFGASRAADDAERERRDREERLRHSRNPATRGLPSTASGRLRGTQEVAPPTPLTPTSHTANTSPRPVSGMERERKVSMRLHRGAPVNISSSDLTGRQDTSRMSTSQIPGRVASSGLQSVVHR
Chain of Proto-oncogene tyrosine-protein kinase Src (P12931 2-536 limits assumed): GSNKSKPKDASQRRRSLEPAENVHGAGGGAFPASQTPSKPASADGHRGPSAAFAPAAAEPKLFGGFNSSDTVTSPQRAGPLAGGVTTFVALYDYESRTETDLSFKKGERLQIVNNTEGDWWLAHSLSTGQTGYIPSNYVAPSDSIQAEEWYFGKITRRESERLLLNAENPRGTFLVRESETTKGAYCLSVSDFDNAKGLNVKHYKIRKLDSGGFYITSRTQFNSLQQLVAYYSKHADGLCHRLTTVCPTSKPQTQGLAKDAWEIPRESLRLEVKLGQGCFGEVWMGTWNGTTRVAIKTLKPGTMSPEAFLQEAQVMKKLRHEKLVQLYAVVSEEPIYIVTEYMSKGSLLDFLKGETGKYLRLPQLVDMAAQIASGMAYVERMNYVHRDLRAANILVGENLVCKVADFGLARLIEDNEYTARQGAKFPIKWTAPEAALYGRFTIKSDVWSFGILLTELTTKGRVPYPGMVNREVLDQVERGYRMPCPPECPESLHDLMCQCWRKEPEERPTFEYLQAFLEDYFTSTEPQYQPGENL
Chain of Insulin receptor (P06213 28-758 limits assumed): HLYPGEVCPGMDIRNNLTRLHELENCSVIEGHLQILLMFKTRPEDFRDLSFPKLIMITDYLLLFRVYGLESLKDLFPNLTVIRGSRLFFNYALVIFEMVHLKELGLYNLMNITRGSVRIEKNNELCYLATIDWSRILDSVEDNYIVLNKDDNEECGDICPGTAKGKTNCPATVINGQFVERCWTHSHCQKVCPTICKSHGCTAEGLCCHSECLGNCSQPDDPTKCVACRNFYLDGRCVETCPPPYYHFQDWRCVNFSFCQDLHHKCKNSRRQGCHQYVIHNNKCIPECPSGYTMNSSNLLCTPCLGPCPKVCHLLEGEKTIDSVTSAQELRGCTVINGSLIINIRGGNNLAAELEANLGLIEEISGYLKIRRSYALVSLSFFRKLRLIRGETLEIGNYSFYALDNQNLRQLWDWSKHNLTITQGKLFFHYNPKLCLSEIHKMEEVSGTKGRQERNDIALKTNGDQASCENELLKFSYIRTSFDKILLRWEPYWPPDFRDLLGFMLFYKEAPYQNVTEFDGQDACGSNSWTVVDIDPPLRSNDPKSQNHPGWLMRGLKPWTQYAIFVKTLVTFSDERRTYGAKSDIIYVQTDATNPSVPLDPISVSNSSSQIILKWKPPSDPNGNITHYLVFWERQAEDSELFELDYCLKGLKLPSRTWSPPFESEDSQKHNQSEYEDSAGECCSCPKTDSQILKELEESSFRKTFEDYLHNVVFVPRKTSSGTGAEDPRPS
Chain of Insulin receptor (P06213 763-1382 limits assumed): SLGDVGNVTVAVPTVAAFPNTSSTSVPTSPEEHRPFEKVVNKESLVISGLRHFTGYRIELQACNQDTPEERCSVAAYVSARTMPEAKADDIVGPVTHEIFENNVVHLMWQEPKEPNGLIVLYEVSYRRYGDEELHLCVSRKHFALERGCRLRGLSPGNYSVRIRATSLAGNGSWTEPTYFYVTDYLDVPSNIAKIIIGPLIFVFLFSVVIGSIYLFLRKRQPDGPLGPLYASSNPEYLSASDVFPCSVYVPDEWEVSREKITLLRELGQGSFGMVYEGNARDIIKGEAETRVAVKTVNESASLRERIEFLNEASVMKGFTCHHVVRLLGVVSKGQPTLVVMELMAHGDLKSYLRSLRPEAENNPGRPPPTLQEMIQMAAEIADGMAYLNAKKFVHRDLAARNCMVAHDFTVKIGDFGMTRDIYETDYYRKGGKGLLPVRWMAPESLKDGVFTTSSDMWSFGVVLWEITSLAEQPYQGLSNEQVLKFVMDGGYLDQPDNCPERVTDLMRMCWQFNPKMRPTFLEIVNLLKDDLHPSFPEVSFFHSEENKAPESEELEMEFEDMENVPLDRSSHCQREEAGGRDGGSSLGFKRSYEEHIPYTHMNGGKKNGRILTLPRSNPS
Chain of Mitogen-activated protein kinase 3 (P27361 whole entry): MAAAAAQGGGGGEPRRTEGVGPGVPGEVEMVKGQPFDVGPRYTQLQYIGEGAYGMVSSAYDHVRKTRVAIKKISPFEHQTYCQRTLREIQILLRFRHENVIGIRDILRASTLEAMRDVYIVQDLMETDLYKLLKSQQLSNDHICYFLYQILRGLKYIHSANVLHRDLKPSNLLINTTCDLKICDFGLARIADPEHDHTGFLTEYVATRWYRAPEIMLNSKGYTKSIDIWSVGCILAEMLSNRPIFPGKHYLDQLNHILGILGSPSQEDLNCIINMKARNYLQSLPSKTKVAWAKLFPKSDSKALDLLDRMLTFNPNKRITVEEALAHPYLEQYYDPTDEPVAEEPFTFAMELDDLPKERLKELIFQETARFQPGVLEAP

What does the source list for `N#Cc1c(Oc2ccc(F)c(NC(=O)Cc3cccc(C(F)(F)F)c3)c2)ccc2nc(NC(=O)C3CC3)sc12`?
IC50 [1]: 58 nM; Vd [2]: 1.87 L/kg; T/C [3]: 26%; IC50 [4]: 62 nM; IC50 [5]: 500 nM; IC50 [6]: 3.3 nM; IC50 [7]: 580 nM; IC50 [8]: 1.4 nM; IC50 [9]: 50 nM; T/C [10]: 62.2%; IC50 [11]: 75 nM; IC50 [12]: > 10 µM; MRT [13]: 4.69 h; solubility [14]: 740 µg/mL (≈ 1330 µM); T/C [15]: 52%; IC50 [16]: > 10 µM; IC50 [17]: > 10 µM; IC50 [18]: > 10 µM; AUC(0-t) at 24 h [19]: 32500 ng·h/mL; IC50 [20]: 740 nM; IC50 [21]: > 10 µM; Vd [22]: 1.57 L/kg; T/C [23]: 103%; Ratio IC50 [24]: 67; T1/2 [25]: 10 h; IC50 [26]: 3.7 µM; IC50 [27]: > 10 µM; IC50 [28]: > 10 µM; Activity [29]: 14 g; IC50 [30]: 12 nM; IC50 [31]: 8.3 nM; IC50 [32]: 16 nM; Activity [33]: 9.3 g; IC50 [34]: 280 nM; MRT [35]: 2.23 h; T/C [36]: 0%; AUC(0-t) at 24 h [37]: 15500 ng·h/mL; IC50 [38]: 2.2 nM

From ChEMBL document CHEMBL3124815, “Discovery of a selective kinase inhibitor (TAK-632) targeting pan-RAF inhibition: design, synthesis, and biological evaluation of C-7-substituted 1,3-benzothiazole derivatives” (J Med Chem, 2013)
